We go through three compounds from patent US20090197916A1, “SOLUBLE EPOXIDE HYDROLASE INHIBITORS FOR TREATMENT OF METABOLIC SYNDROME AND RELATED DISORDERS” (Arete Therapeutics, Inc, priority 2007, published 2009).

One series has as its target T1, PPARγ (Homo sapiens, UniProt P37231).
T1 sequence (P37231 1-505): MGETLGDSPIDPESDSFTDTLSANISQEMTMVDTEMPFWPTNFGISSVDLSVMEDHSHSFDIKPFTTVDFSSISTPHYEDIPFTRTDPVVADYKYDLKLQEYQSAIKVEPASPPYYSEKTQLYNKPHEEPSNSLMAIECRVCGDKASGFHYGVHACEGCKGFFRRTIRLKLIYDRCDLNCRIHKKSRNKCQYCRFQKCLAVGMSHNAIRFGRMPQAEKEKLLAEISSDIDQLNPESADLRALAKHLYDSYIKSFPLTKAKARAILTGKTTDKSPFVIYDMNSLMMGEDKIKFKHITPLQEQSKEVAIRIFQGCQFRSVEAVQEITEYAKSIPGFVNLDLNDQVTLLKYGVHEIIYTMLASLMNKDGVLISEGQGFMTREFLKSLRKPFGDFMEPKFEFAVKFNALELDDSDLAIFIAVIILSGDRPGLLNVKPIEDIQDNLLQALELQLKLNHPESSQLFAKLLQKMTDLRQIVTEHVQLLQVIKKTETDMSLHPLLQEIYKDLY
Briefly: standard PPARγ activation assay. It counts as cell-based. The note with it: relative to standard reference.

Series [1] concerns Zucker diabetic fatty rats (ZDF). The series can be described thus: Model 4: Zucker diabetic fatty rats. It counts as in vivo. The note with it: daily dose of 100 mg/kg for four weeks, vs vehicle. As to the method: All protocols were approved by the institutional animal care and use committee at Arête Therapeutics. Eight weeks old male Zucker diabetic fatty rats (ZDF) (Charles River Laboratory, Hollister, Calif.) with a 270 g body weight on average used in this study were fed a normal chow. Baseline blood pressure and body weight were measured before surgery. Animals were anesthetized by inhalation of 2% isoflurane. The animals were randomly divided into 2 groups; […] Four animals were assigned to the vehicle group and three to the Compound 2 group. After 4 weeks of treatment, systolic blood pressure was measured in conscious mice using a tail-cuff system (Kent Scientific Corporation, Torrington, Conn.), and the animals were euthanized. Blood samples were collected via cardiac puncture for the measurement of a serum cholesterol profile (IDEXX Veterinary Services, West Sacramento, Calif.) and tissues were removed for analysis. All results are presented as the mean and standard error (SEM). Comparison between the vehicle and Compound 2 treatment groups was performed using Student's t test.

Series [2] addresses T2, sEH (Homo sapiens, UniProt P34913).
T2 sequence (P34913 1-555): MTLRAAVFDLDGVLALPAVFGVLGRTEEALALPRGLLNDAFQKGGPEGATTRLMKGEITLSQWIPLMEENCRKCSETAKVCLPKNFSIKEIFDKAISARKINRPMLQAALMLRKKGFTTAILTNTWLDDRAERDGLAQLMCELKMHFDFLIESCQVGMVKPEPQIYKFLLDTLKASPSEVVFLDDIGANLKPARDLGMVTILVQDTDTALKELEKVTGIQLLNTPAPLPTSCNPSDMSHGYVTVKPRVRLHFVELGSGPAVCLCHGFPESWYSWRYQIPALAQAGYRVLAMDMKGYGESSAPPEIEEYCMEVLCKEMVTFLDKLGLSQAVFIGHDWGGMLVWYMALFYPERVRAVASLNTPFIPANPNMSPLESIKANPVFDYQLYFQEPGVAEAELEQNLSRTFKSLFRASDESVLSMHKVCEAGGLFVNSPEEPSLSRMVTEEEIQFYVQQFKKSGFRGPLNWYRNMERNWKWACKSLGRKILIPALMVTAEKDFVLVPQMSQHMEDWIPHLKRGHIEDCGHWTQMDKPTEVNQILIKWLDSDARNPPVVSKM
Briefly: sEH enzymatic assay (Compound 6). It counts as biochemical. Particulars: read-out: IC50 for inhibition of sEH, enzymatic assay.

The next series can be described thus: pharmacokinetics in mice. It counts as in vivo. Particulars: mouse, plasma.
The test system of series [3] is over 100 cardiovascular disease related targets, including hydroxy-methylglutaryl-coenzyme A (HMO CoA) reductase. Briefly: off-target screen assays. Particulars: concentration of 10 μM.
A further series deals with T3, whole blood sEH activity (Mus musculus, UniProt P34914).
T3 construct: from tissue; host or cells: whole blood of apoE KO mice
T3 sequence (P34914 1-554): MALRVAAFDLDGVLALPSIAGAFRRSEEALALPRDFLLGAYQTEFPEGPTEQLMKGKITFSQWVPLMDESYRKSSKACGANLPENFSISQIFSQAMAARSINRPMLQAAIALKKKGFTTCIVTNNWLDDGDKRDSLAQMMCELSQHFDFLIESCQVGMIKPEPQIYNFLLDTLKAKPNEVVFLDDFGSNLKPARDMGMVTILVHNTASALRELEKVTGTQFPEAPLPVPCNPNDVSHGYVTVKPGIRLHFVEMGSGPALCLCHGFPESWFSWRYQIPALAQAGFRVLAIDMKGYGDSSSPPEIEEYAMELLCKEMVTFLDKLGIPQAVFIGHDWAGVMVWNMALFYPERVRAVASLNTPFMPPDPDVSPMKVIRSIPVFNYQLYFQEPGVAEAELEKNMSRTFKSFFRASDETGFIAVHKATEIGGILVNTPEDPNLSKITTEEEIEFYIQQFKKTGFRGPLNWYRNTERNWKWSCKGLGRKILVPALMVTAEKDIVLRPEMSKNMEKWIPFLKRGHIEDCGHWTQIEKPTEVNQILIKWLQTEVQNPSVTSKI
Briefly: whole blood sEH activity in apoE KO mice, dosing with drinking water. It counts as in vivo. Particulars: treatment with drinking water.

Series [4] has as its target T2, sEH. Briefly: sEH inhibition, fluorescent assay with CMNPC substrate (percent inhibition and IC50). It counts as biochemical. Particulars: Concentration 2000 nM. As to the method:
The substrate for the reaction was:
Therefore, well A2 would refer to a well in the first row and second column of the plate.
In a black 96 well plate, all the wells are filled with 150 μL of buffer A (Buffer A: Bis/Tris HCl, 25 mM, pH 7.0 plus 0.1 mg/mL BSA). DMSO (2 microliters) was added in well A2 and A3, and then was added 2 μL of inhibitor solution in A1 and A4 through A12. […] The plate was incubated for 5 minutes in the plate reader at 30° C. During incubation, the working solution of substrate was prepared by mixing 3.68 mL of buffer A with 266 μL of 0.5 mM substrate solution. At t=0, 30 μL of working substrate solution was added and readings were started ([S]final: 5 μM).

Series [5] concerns the target T2, sEH. The series can be described thus: sEH cell based assay (Compound 6). Particulars: read-out: IC50 for inhibition of sEH, cell based assay.
A further series deals with apoE deficient mice. Briefly: Model 3: angiotensin II-infused apoE deficient mice with carotid ligation. It counts as in vivo. As to the method: All protocols were approved by the institutional animal care and use committee at Arête Therapeutics. Six-month old male apoE deficient mice (The Jackson Laboratory, Bar Harbor, Me.) fed a normal chow were used in this study. Baseline blood pressure and body weight were measured before surgery. Animals were anesthetized by inhalation of 2% isoflurane. The left common carotid artery carefully dissected via a midline neck incision under a dissecting microscope, and the left common carotid artery was ligated with a 6-0 silk ligature just proximal to its bifurcation. At the time of ligation, animals were subcutaneously implanted with a minipump (model 2004, Durect Corp., Cupertino, Calif.) filled with Ang II (1.44 mg/Kg/day, Phoenix Pharmaceuticals, Burlingame, Calif.). The animals were randomly divided into 2 groups; Vehicle: drinking water containing 5% hydroxypropyl-beta-cyclodextrin (HPBCD) or Compound 6: drinking water containing 1.5 mg/ml Compound 6 in 5% HPBCD. Each experimental group included 11 animals. After 4 weeks of Ang TI infusion, systolic blood pressure was measured in conscious mice using a tail-cuff system (Kent Scientific Corporation, Torrington, Conn.), and the animals were euthanized. Blood samples were collected via cardiac puncture for the measurement of a serum cholesterol profile (IDEXX Veterinary Services, West Sacramento, Calif.) and serum inflammatory panel (Murigenics, Hayward, Calif.) using a mouse cytokine/chemokine panel kit (Millipore, Billerica, Mass.), and tissues were removed for analysis.
All results are presented as the mean and standard error (SEM). Comparison between the vehicle and Compound 6 treatment groups was performed using Student's t test. The percentage of mice that developed AAA was compared between the two groups using X^2 test.

A value given as a limit tells only on which side of the number the result lay.

`CCCCCC1OC1C/C=C\C/C=C\C/C=C\CCCC(=O)O` (centres unmarked) [14, 15 EET, reference compound]: the “PPARγ activation relative to troglitzone (100%)” value on PPARγ is on record as 28%.
As for `CC(=O)N1CCC(NC(=O)NC23CC4CC(CC(C4)C2)C3)CC1` [Compound 2, 1-[1-(acetyl)piperidin-4-yl]-3-(adamant-1-yl) urea], in [1], the HDL level result is “decreased”, the LDL entry was “significantly decreased”, the “blood glycated hemoglobin (HbA1c %)” value is “significantly decreased” and the “fasting plasma glucose level” value was “significantly decreased”. In series [1], the total cholesterol entry is given as “significantly decreased” and the “triglycerides (TGs)” value is on record as “significantly decreased”.
The IC50 is the midpoint of a concentration-inhibition curve. As usually defined, the bioavailability is dose-corrected exposure relative to a reference, in per cent. A low value points to poor availability. The term half-life denotes the time needed for the level to fall by half in the phase considered. Usually inhibition stands for the percentage by which the read-out fell short of the control. As to `O=C(Nc1ccc(OC(F)(F)F)cc1)NC1CCN(C(=O)c2cccnc2)CC1` [Compound 6, 1-(1-nicotinoylpiperidin-4-yl)-3-(4-(trifluoromethoxy)phenyl)urea], at sEH [2], the half-inhibitory concentration (IC50) turned out to be 1.6 nM. Further, the “PPARγ activation relative to troglitzone (100%)” value at PPARγ stood at 11%. The bioavailability in “pharmacokinetics in mice” (AUC oral dose relative to AUC intravenous dose) was over 100%. Moreover, in the series “pharmacokinetics in mice” (intravenous administration, read-out: terminal half life (converted)), the half-life is about 4 h. Besides, the “activity in off-target screen assays” value in series [3] is “inactive”. Besides, at whole blood sEH activity, the average plasma concentration was 21 ± 1.8 µg/mL. In addition, the inhibition at 2 µM against sEH [4] amounted to 100%. Also, at sEH [5], the IC50 worked out at 8.9 nM. Also, in the series on apoE deficient mice (4 weeks), the “HDL levels compared to vehicle” value is “significantly higher”; the “effect on blood pressure, body weights, and food consumption” value is “no statistical significant effect”; the “ratio of LDL/HDL relative to vehicle group” value was “only half of that in vehicle group”; the “total cholesterol level compared to vehicle” value is recorded as “significantly lower”. In the series with apoE deficient mice (4 weeks), the “triglyceride and glucose levels compared to vehicle” value is on record as “no significant difference”. Also, the “Ratio of LDL/HDL” value in the series on apoE deficient mice (4 weeks, vehicle 19.6 ± 1.5) came to 10.5 ± 1.5. Moreover, the “body weight” value in the series with apoE deficient mice (4 weeks, vehicle 27 ± 0.7) is recorded as 28 ± 0.6 g. Further, in the series with apoE deficient mice (4 weeks, vehicle 32 ± 3), the “HDL” value amounted to 46 ± 4 mg/dL. Also, the “Blood Glucose” value in the series with apoE deficient mice (4 weeks, vehicle 216 ± 22) is given as 185 ± 17 mg/dL. For the same compound, in the series with apoE deficient mice (4 weeks, vehicle 301 ± 59), the “Triglyceride” value is recorded as 258 ± 47 mg/dL. Moreover, in the series on apoE deficient mice (4 weeks, vehicle 624 ± 70), the “LDL” value is on record as 438 ± 28 mg/dL. Moreover, in the series with apoE deficient mice (Baseline, before surgery and treatment), the “Blood Pressure (mmHg) Baseline” value is given as 101 ± 2 mmHg. Further, in the series with apoE deficient mice (End, after 4 weeks of Ang II infusion, vehicle 137 ± 3), the “Blood Pressure (mmHg) End” value amounted to 130 ± 4 mmHg. Also, the “atherosclerosis progression and aneurysm formation” value in the series on apoE deficient mice (apoE deficient mice chronically treated with Ang II) is given as “attenuated”.
